Reference: patent US8653074B2, “Substituted sodium 1H-pyrazol-5-olate” (Bayer Intellectual Property GmbH, priority 2010, dated 2014)

Tests used:
[1] = Vapour adsorption and vapour desorption (moisture sorption isotherm); type: physicochemical; conditions: for Adsorption / Desorption: 25° C.
Method: Vapour Adsorption and Vapour Desorption:
The moisture sorption isotherm was recorded using a Dynamic Vapour Sorption Analyzer IGA Sorp from Hiden Analytical. The measuring temperature was 25° C. There was no sample preparation.

[2] = Solubility in water; type: physicochemical; conditions: for solubility thermodynamic at 16 h: thermodynamic from solid, water, 25° C., stirred 16 hours, HPLC
Method: Method: Saturated solutions of the test substance were prepared by stirring a suspension in water at 25° C. for 16 hours. The suspensions obtained were then filtered, and the content in the filtrate was determined by HPLC.

[3] = Vapour adsorption and vapour desorption (moisture sorption isotherm); type: physicochemical; conditions: customary environmental conditions (20-35° C., atmospheric pressure)
[4] = target: T1, EGLN2/PHD1 (Homo sapiens, UniProt Q96KS0); assay: Inhibition of the activity of HIF prolyl hydroxylase (VBC complex binding test); type: biochemical; conditions: mean for EGLN2/PHD1
T1 construct: host or cells: cell lysate
Method: The test is carried out as described [Oehme F., Jonghaus W., Narouz-Ott L., Huetter J., Flamme I., Anal. Biochem. 330 (1), 74-80 (2004)]:
A clear 96-well microtiter plate coated with NeutrAvidin HBC (Pierce) is incubated with blocker casein for 30 minutes. The plate is then washed three times with 200 μl each time of wash buffer (50 mM Tris, pH 7.5, 100 mM NaCl, 10% (v/v) blocker casein, 0.05% (v/v) Tween 20) per well. The peptide biotin-[sequence] (Eurogentec, 4102 Seraing, Belgium) is added in a concentration of 400 nM in 100 μl wash buffer. This peptide serves as a substrate for the prolyl hydroxylation and is bonded to the microtiter plate. After incubation for 60 minutes, the plate is washed three times with wash buffer, incubated with 1 mM biotin in blocker casein for 30 minutes and then washed again three times with wash buffer.
To carry out the prolyl hydroxylase reaction, the peptide substrate bonded to the plate is incubated with a cell lysate containing prolyl hydroxylase for 1 to 60 minutes. […]

[5] = target: EGLN1/PHD2 (Homo sapiens, UniProt Q9GZT9); assay: biochemical
Method: Hydroxylated HIF bonds specifically to the von Hippel-Lindau protein-elongin B-elongin C complex (VBC complex). This interaction occurs only if HIF is hydroxylated on a conserved prolyl radical. It is the basis for the biochemical determination of HIF prolyl hydroxylase activity.
A clear 96-well microtiter plate coated with NeutrAvidin HBC (Pierce) is incubated with blocker casein for 30 minutes. The plate is then washed three times with 200 μl each time of wash buffer (50 mM Tris, pH 7.5, 100 mM NaCl, 10% (v/v) blocker casein, 0.05% (v/v) Tween 20) per well. […] This peptide serves as a substrate for the prolyl hydroxylation and is bonded to the microtiter plate. After incubation for 60 minutes, the plate is washed three times with wash buffer, incubated with 1 mM biotin in blocker casein for 30 minutes and then washed again three times with wash buffer. […]
For quantitative determination of the prolyl hydroxylation, a fusion protein which contains both thioredoxin from E. coli and the VBC complex in 80 μl bonding buffer (50 mM Tris, pH 7.5, 120 mM NaCl) is added. […] The amount of bonded VBC complex is determined by measurement of the optical density at 450 nm. […]
Alternatively, a VBC complex coupled to europium (Perkin Elmer) can be used for detection of the prolyl hydroxylation. In this case, the amount of bonded VBC complex is determined by the fluorescence with respect to time.

[6] = test system: recombinant A549 cell line with luciferase reporter under hypoxia-responsible elements; assay: Cellular, functional in vitro test (luciferase reporter under hypoxia-responsible elements); type: cell-based; conditions: Homo sapiens
From the text: 1.b) Cellular, Functional in vitro Test:
The activity of the compounds according to the invention is quantified with the aid of a recombinant cell line. The cell is originally derived from a human lung carcinoma cell line (A549, ATCC: American Type Culture Collection, Manassas, Va. 20108, USA). The test cell line is transfected in a stable manner with a vector which contains the reporter gene of Photinus pyralis luciferase (called luciferase in the following) under the control of an artificial minimal promoter. […] Under the effect of hypoxia (e.g. culturing in the presence of 1% oxygen for 24 hours) or under the action of non-selective dioxygenase inhibitors (e.g. desferroxamine in a concentration of 100 μM, cobalt chloride in a concentration of 100 μM or N-oxalylglycine diethyl ester in a concentration of 1 mM), the test cell line produces luciferase, which can be detected and quantified with the aid of suitable bioluminescence reagents (e.g. Steady-Glo® Luciferase Assay System, Promega Corporation, Madison, Wis. 53711, USA) and a suitable luminometer.
On the day before the test, the cells are plated out in an exactly calculated amount of culture medium (DMEM, 10% FCS, 2 mM glutamine) in 384- or 1,536-well microtiter plates and kept in a cell incubator (96% atmospheric humidity, 5% v/v CO2, 37° C.). […]

Sequence of EGLN1/PHD2 (Q9GZT9 whole entry): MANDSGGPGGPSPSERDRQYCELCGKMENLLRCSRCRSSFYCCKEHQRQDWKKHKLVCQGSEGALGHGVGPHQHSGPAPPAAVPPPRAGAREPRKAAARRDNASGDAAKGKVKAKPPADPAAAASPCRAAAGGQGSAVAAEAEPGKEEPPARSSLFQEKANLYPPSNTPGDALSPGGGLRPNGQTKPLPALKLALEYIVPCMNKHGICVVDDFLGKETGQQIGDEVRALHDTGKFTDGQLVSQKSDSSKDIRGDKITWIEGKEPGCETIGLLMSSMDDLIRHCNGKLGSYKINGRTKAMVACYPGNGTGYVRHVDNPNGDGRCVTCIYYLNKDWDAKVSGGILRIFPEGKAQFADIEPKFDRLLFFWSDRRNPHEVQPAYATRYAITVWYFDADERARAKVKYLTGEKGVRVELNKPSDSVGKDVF
T1 sequence (Q96KS0 whole entry): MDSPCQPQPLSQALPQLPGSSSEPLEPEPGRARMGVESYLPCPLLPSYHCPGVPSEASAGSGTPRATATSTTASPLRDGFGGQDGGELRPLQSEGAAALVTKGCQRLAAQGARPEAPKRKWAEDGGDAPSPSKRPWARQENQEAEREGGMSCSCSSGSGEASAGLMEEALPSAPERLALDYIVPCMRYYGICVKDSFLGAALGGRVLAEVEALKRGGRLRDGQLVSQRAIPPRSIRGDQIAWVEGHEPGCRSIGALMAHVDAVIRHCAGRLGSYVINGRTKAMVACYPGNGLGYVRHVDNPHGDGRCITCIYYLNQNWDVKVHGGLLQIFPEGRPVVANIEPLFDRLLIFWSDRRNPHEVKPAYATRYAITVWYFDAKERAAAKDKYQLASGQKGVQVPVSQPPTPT

| Structure (SMILES) | Adsorption ([1]; 0% rh) [%] | Adsorption ([1]; 10% rh) [%] | Desorption ([1]; 10% rh) [%] | Adsorption ([1]; 20% rh) [%] | Desorption ([1]; 20% rh) [%] | Adsorption ([1]; 30% rh) [%] | Desorption ([1]; 30% rh) [%] | Adsorption ([1]; 40% rh) [%] | Desorption ([1]; 40% rh) [%] | Adsorption ([1]; 50% rh) [%] | Desorption ([1]; 50% rh) [%] | Adsorption ([1]; 60% rh) [%] | Desorption ([1]; 60% rh) [%] | Adsorption ([1]; 70% rh) [%] | Desorption ([1]; 70% rh) [%] | Adsorption ([1]; 80% rh) [%] | Desorption ([1]; 80% rh) [%] | Adsorption ([1]; 90% rh) [%] | Desorption ([1]; 90% rh) [%] | solubility thermodynamic at 16 h [2] [mg/mL] | other results |
| --- | --- | --- | --- | --- | --- | --- | --- | --- | --- | --- | --- | --- | --- | --- | --- | --- | --- | --- | --- | --- | --- |
| Oc1c(-n2ccnn2)cnn1-c1cc(N2CCOCC2)ncn1 [Compound of the formula (I), 1-[6-(morpholin-4-yl)pyrimidin-4-yl]-4-(1H-1,2,3-triazol-1-yl)-1H-pyrazol-5-ol, reference compound] | 0.1 | 0.2 | 0.1 | 0.3 | 0.2 | 4.8 | 4.7 | 5.1 | 5.2 | 5.3 | 5.4 | 5.4 | 5.6 | 5.6 | 5.6 | 5.7 | 5.7 | 5.9 | 5.9 | 0.143 | Desorption ([1]; 5% rh (printed in the 0% rh line)): 0.1% (5% rh); uptake of water ([1]; 20-35° C., atmospheric pressure, relative atmospheric humidity above 20% rh): up to 6 % by weight; hygroscopicity [3]: hygroscopic |
| [Na+].[O-]c1c(-n2ccnn2)cnn1-c1cc(N2CCOCC2)ncn1 [Compound of the formula (II), sodium 1-[6-(morpholin-4-yl)pyrimidin-4-yl]-4-(1H-1,2,3-triazol-1-yl)-1H-pyrazol-5-olate] | 0 | 0 | 0 | 0.1 | 0 | 0.1 | 0.1 | 0.2 | 0.2 | 0.2 | 0.3 | 0.2 | 0.3 | 0.4 | 0.4 | 0.4 | 0.5 | 0.8 | 0.8 | 28 | IC50 [4]: 470 nM; IC50 [5]: 140 nM; EC50 [6]: 7 nM; water content [1]: less than 0.5 % by weight; Desorption ([1]; 0% rh): 0%; change of water content ([1]; 20-35° C., atmospheric pressure, atmospheric humidity of up to 90% rh): less than 0.5 % by weight; solubility in water compared to the compound of the formula (I) [2]: higher solubility in water; hygroscopicity [3]: not hygroscopic |
